From patent US6699849B1, “Cyclodextrin complexes of benzodiazepines” (Cyclops, ehf., priority 1998, dated 2004)

How the values were obtained:
Assay type in all cases: physicochemical
[1] = Effect of pH and cyclodextrins on the fraction of the open form (diazepine ring-opening) of benzodiazepines
Protocol: The cyclodextrin concentration was 10% (w/v) and the benzodiazepine concentration was 1×10^−4 M. The concentration of the closed form was determined immediately after dissolving the benzodiazepine in the aqueous cyclodextrin solution and again 24 hours later (i.e. after equilibration at 23° C.). Preliminary experiments had shown that equilibrium between the closed and the open form was attained within 3 hours at 23° C.

[2] = Solubility of midazolam versus pH in buffer, 10% HPβCD and 10% HPβCD + 0.10% HPMC; conditions: 10% (w/v) HPβCD + 0.10% (w/v) HPMC, FIG. 3
Protocol: Midazolam is a water-insoluble weak base (pKa 6.2) which forms a somewhat water-soluble cation in acidic solution. Solubility (S) of midazolam at several different pH levels was determined in: a) pure aqueous buffer solutions (i.e. without HPβCD and HPMC); b) aqueous buffer solutions containing 10% (w/v) 2-hydroxypropyl-β-cyclodextrin (HPβCD) of molar substitution (MS)=0.3; and c) aqueous solutions containing 10% (w/v) 2-hydroxypropyl-β-cyclodextrin (HPβCD) of molar substitution (MS)=0.3 and 0.10% (w/v) hydroxypropyl methylcellulose (HPMC) 4000. Excess amount of the drug was added to the aqueous solution and the suspension formed was heated in a sealed container in an autoclave (120-140° C. for 20-40 minutes). After equilibration at room temperature (22-23° C.) for seven days, the suspension was filtered through a 0.45 μm membrane filter, diluted with aqueous methanolic solution and the amount of dissolved midazolam determined by a high pressure liquid chromatographic method (HPLC). FIG. 3 illustrates the effect of pH (i.e. the ring-opening) on the solubility of midazolam (pKa 6.2) in pure aqueous buffer solutions (●), aqueous buffer solutions containing 10% (w/v) HPβCD (▪), and aqueous buffer solutions containing both 10% (w/v) HPβCD and 0.10% (w/v) HPMC (♦) at room temperature.

[3] = Solubility of midazolam versus pH with cyclodextrins and 10% (v/v) acetic acid
Protocol: Excess amount of the drug was added to the aqueous HPβCD solution and the suspension formed was heated in a sealed container in an autoclave (120-140° C. for 20-40 minutes). After equilibration at room temperature (22-23° C.) for seven days, the suspension was filtered through a 0.45 μm membrane filter, diluted with aqueous methanolic solution and the amount of dissolved midazolam determined by a high pressure liquid chromatographic method (HPLC). FIG. 4 illustrates the effects of cyclodextrins, pH and 10% (v/v) acetic acid on the solubility of midazolam in aqueous solutions: pure aqueous buffer solution (▴); aqueous 10% (v/v) acetate solution (●); 10% (w/v) HPβCD solution containing 0.10% (w/v) HPMC in aqueous 10% (v/v) acetic acid solution (▪); 10% (w/v) aqueous SBEβCD solution in aqueous 10% (v/v) acetate (♦).

[4] = First-order rate constant of diazepine ring-closure (regeneration of the benzodiazepine); conditions: pH 7.5, 37° C.
Protocol: The effect of cyclodextrins and organic solvents on the rate of diazepine ring-closure of several selected benzodiazepines was investigated. Stock solutions containing 1.0×10^−3 M of the benzodiazepine in 0.10 M aqueous hydrochloric acid solution (pH approx. 1.1) were prepared and stored at 37.0° C. The benzodiazepines were in the ring-open form in these stock solutions. Aqueous 0.50 M tris buffer (pH 7.50) solution was prepared. The observed first-order rate constant for the closing (i.e. formation) of the benzodiazepine ring was determined in the following reaction media: a) pure aqueous tris buffer solution; b) aqueous tris buffer solution containing 10% (w/v) cyclodextrin; c) tris buffer solution containing 10% (w/v) cyclodextrin and 10% (v/v) ethanol (EtOH); d) tris buffer solution containing 10% (w/v) cyclodextrin and 50% (v/v) EtOH; e) tris buffer solution containing 10% (w/v) cyclodextrin and 10% (v/v) dimethylsulfoxide (DMSO); and f) tris buffer solution containing 10% (w/v) cyclodextrin and 50% (w/v) DMSO. The stock solution (30 μl) was added to 1.50 ml of the reaction media which had previously been equilibrated to 37.0° C. and the first-order rate constant for the appearance of the closed form determined from the appearance of the closed form as observed on HPLC. Tables 5, 6 and 7 show the effects of cyclodextrins, EtOH and DMSO on the observed first-order rate constant for the regeneration of alprazolam, triazolam and midazolam, respectively. In pure aqueous buffer solutions, addition of EtOH and DMSO decreases somewhat the rate of ring closure, at least in the case of alprazolam and midazolam. Addition of cyclodextrin or the organic solvents have insignificant effect on the pH under these conditions. The dielectric constant of the reaction medium will, however, decrease upon addition of the organic solvents. It is possible that this decrease in the dielectric constant will reduce the ability of the reaction media to stabilize the transition state which could explain the decrease in the observed rate constant. […] The cyclodextrins formed stable complexes with the ring-open form of the drug and, thus, the rate decreased upon addition of cyclodextrin. […] EtOH and DMSO will compete with the diazepine ring-open form for a space in the cyclodextrin cavity resulting in decreased complexation.

Compound: Cc1ncc2n1-c1ccc(Cl)cc1C(c1ccccc1F)=NC2 [midazolam, 8-chloro-6-(2-fluorophenyl)-1-methyl-4H-imidazo[1,5-a][1,4]benzodiazepine]
- Fraction open ([1]; 10% (w/v) HPβCD, pH 2, approx. 23° C.): 0.56
- Fraction open ([1]; 10% (w/v) HPβCD, pH 3, approx. 23° C.): 0.18
- Fraction open ([1]; 10% (w/v) HPβCD, pH 4, approx. 23° C.): 0.23
- Fraction open ([1]; 10% (w/v) SBEβCD, pH 2, approx. 23° C.): 0.81
- Fraction open ([1]; 10% (w/v) SBEβCD, pH 3, approx. 23° C.): 0.39
- Fraction open ([1]; 10% (w/v) SBEβCD, pH 4, approx. 23° C.): 0.11
- Fraction open ([1]; 10% (w/v) αCD, pH 2, approx. 23° C.): 0.79
- Fraction open ([1]; 10% (w/v) αCD, pH 3, approx. 23° C.): 0.32
- Fraction open ([1]; 10% (w/v) αCD, pH 4, approx. 23° C.): 0.10
- Fraction open ([1]; 10% (w/v) γCD, pH 2, approx. 23° C.): 0.61
- Fraction open ([1]; 10% (w/v) γCD, pH 3, approx. 23° C.): 0.21
- Fraction open ([1]; 10% (w/v) γCD, pH 4, approx. 23° C.): 0.17
- Fraction open ([1]; no cyclodextrin, pH 2, approx. 23° C.): 0.74
- Fraction open ([1]; no cyclodextrin, pH 3, approx. 23° C.): 0.28
- Fraction open ([1]; no cyclodextrin, pH 4, approx. 23° C.): 0.18
- effect of addition of HPMC on complexation efficiency [2]: significantly improves
- effect of 10% (v/v) acetic acid co-solvent on fraction of the open ring form [3]: small decrease
- effect of addition of 10% (v/v) acetic acid on complexation ([3]; cyclodextrin solutions, FIG. 4): significantly improves
- observed first-order rate constant, ring formation ([4]; 10% HPβCD, 10% DMSO): 0.0336 min⁻¹
- observed first-order rate constant, ring formation ([4]; 10% HPβCD, 10% EtOH): 0.0386 min⁻¹
- observed first-order rate constant, ring formation ([4]; 10% HPβCD, 50% DMSO): 0.084 min⁻¹
- observed first-order rate constant, ring formation ([4]; 10% HPβCD, 50% EtOH): 0.0653 min⁻¹
- observed first-order rate constant, ring formation ([4]; 10% HPβCD, pure water): 0.0277 min⁻¹
- observed first-order rate constant, ring formation ([4]; 10% RMβCD, 10% DMSO): 0.0494 min⁻¹
- observed first-order rate constant, ring formation ([4]; 10% RMβCD, 10% EtOH): 0.0424 min⁻¹
- observed first-order rate constant, ring formation ([4]; 10% RMβCD, 50% DMSO): 0.0848 min⁻¹
- observed first-order rate constant, ring formation ([4]; 10% RMβCD, 50% EtOH): 0.0699 min⁻¹
- observed first-order rate constant, ring formation ([4]; 10% RMβCD, pure water): 0.0305 min⁻¹
- observed first-order rate constant, ring formation ([4]; 10% SBEβCD, 10% DMSO): 0.0224 min⁻¹
- observed first-order rate constant, ring formation ([4]; 10% SBEβCD, 10% EtOH): 0.033 min⁻¹
- observed first-order rate constant, ring formation ([4]; 10% SBEβCD, 50% DMSO): 0.0855 min⁻¹
- observed first-order rate constant, ring formation ([4]; 10% SBEβCD, 50% EtOH): 0.065 min⁻¹
- observed first-order rate constant, ring formation ([4]; 10% SBEβCD, pure water): 0.013 min⁻¹
- observed first-order rate constant, ring formation ([4]; No CD, 10% DMSO): 0.138 min⁻¹
- observed first-order rate constant, ring formation ([4]; No CD, 10% EtOH): 0.126 min⁻¹
- observed first-order rate constant, ring formation ([4]; No CD, 50% DMSO): 0.109 min⁻¹
- observed first-order rate constant, ring formation ([4]; No CD, 50% EtOH): 0.0841 min⁻¹
- observed first-order rate constant, ring formation ([4]; No CD, pure water): 0.179 min⁻¹
